Results published in ChEMBL document CHEMBL1141017, “Triterpene based compounds with potent anti-maturation activity against HIV-1” (Bioorg Med Chem Lett, 2008).

Legend:
[1] = Cytotoxicity against human MT4 cells after 4 days by cell viability assay; type: cell-based; conditions: read-out: TC50
[2] = system: Human immunodeficiency virus 1; assay: Antiviral activity against HIV1 NL4-3 infected in human MT4 cells assessed as cytoprotection against virus-induced cytopathic effect after 4 days by cell viability assay; type: functional, organism-based; conditions: Human immunodeficiency virus 1, NL4-3, MT4, 96 h
[3] = Therapeutic index, ratio of TC50 for human MT4 cells to EC50 for HIV1 NL43; type: cell-based
[4] = Therapeutic index, ratio of TC50 for human MT4 cells to IC50 for HIV1 3B; type: cell-based
[5] = Metabolic stability in human liver microsomes assessed as compound remaining after 40 mins; type: ADME, Microsome; conditions: read-out: Stability
[6] = Metabolic stability in Sprague-Dawley rat liver microsomes assessed as compound remaining after 40 mins; type: ADME, Microsome; conditions: read-out: Stability
[7] = system: Human immunodeficiency virus 1; assay: Antiviral activity against HIV1 3B replication in human PBMC assessed as reverse transcriptase activity after 7 days; type: functional, organism-based; conditions: Human immunodeficiency virus 1, 3B, 168 h
[8] = Cytotoxicity against human PBMC by cell viability assay; type: cell-based; conditions: read-out: TC50 (the source's name)

Row | SMILES | CC50 at 96 h [1] [nM] | EC50 [2] [nM] | selectivity ratio [3] | selectivity ratio [4] | remaining at 40 min [5] [%] | remaining at 40 min [6] [%] | IC50 [7] [nM] | CC50 [8] [nM]
1 | C=C(C)[C@@H]1CC[C@]2(C(=O)NCc3ccccc3C(=O)NCCNC(C)=O)CC[C@]3(C)[C@H](CC[C@@H]4[C@@]5(C)CC[C@H](OC(=O)CC(C)(C)C(=O)O)C(C)(C)[C@@H]5CC[C@]43C)[C@@H]12 | 9300 | 5 | > 400 | > 400 | – | – | – | –
2 | C=C(C)[C@@H]1CC[C@]2(C(=O)NCc3ccccc3-c3ccccc3)CC[C@]3(C)[C@H](CC[C@@H]4[C@@]5(C)CC[C@H](OC(=O)CC(C)(C)C(=O)O)C(C)(C)[C@@H]5CC[C@]43C)[C@@H]12 | > 10000 | 290 | > 400 | > 400 | – | – | – | –
3 | C=C(C)[C@@H]1CC[C@]2(C(=O)NCc3ccc(N(C)C)cc3)CC[C@]3(C)[C@H](CC[C@@H]4[C@@]5(C)CC[C@H](OC(=O)CC(C)(C)C(=O)O)C(C)(C)[C@@H]5CC[C@]43C)[C@@H]12 | 1000 | 30 | > 400 | > 400 | 10 | 10 | – | –
4 | C=C(C)[C@@H]1CC[C@]2(C(=O)NCc3ccc(-c4ccccc4)cc3)CC[C@]3(C)[C@H](CC[C@@H]4[C@@]5(C)CC[C@H](OC(=O)CC(C)(C)C(=O)O)C(C)(C)[C@@H]5CC[C@]43C)[C@@H]12 | > 10000 | 267 | > 400 | > 400 | 10 | – | – | –
5 | C=C(C)[C@@H]1CC[C@]2(C(=O)NCc3nc4ccccc4[nH]3)CC[C@]3(C)[C@H](CC[C@@H]4[C@@]5(C)CC[C@H](OC(=O)CC(C)(C)C(=O)O)C(C)(C)[C@@H]5CC[C@]43C)[C@@H]12 | 8600 | 5 | – | – | – | – | 1 | > 10000
6 | C=C(C)[C@@H]1CC[C@]2(C(=O)NCc3ccccc3C)CC[C@]3(C)[C@H](CC[C@@H]4[C@@]5(C)CC[C@H](OC(=O)CC(C)(C)C(=O)O)C(C)(C)[C@@H]5CC[C@]43C)[C@@H]12 | > 10000 | 85 | > 400 | > 400 | 10 | – | – | –
7 | C=C(C)[C@@H]1CC[C@]2(C(=O)N[C@H]3CCc4ccccc43)CC[C@]3(C)[C@H](CC[C@@H]4[C@@]5(C)CC[C@H](OC(=O)CC(C)(C)C(=O)O)C(C)(C)[C@@H]5CC[C@]43C)[C@@H]12 | > 10000 | 200 | – | – | – | – | – | –
8 | C=C(C)[C@@H]1CC[C@]2(C(=O)NCc3ccc4c(c3)OCO4)CC[C@]3(C)[C@H](CC[C@@H]4[C@@]5(C)CC[C@H](OC(=O)CC(C)(C)C(=O)O)C(C)(C)[C@@H]5CC[C@]43C)[C@@H]12 | > 10000 | 23 | > 400 | > 400 | 10 | 10 | 9 | > 10000
9 | C=C(C)[C@@H]1CC[C@]2(C(=O)NCc3cccc(C(=O)NCCNC(C)=O)c3)CC[C@]3(C)[C@H](CC[C@@H]4[C@@]5(C)CC[C@H](OC(=O)CC(C)(C)C(=O)O)C(C)(C)[C@@H]5CC[C@]43C)[C@@H]12 | 10000 | 10 | > 400 | > 400 | – | 10 | – | –
10 | C=C(C)[C@@H]1CC[C@]2(C(=O)NCCc3cccc(OC)c3)CC[C@]3(C)[C@H](CC[C@@H]4[C@@]5(C)CC[C@H](OC(=O)CC(C)(C)C(=O)O)C(C)(C)[C@@H]5CC[C@]43C)[C@@H]12 | > 10000 | 40 | – | – | – | – | – | –
11 | C=C(C)[C@@H]1CC[C@]2(C(=O)NCc3nc4ccccc4s3)CC[C@]3(C)[C@H](CC[C@@H]4[C@@]5(C)CC[C@H](OC(=O)CC(C)(C)C(=O)O)C(C)(C)[C@@H]5CC[C@]43C)[C@@H]12 | 6800 | 33 | – | – | – | – | 3 | > 10000
12 | C=C(C)[C@@H]1CC[C@]2(C(=O)NCc3cccc(C(=O)O)c3)CC[C@]3(C)[C@H](CC[C@@H]4[C@@]5(C)CC[C@H](OC(=O)CC(C)(C)C(=O)O)C(C)(C)[C@@H]5CC[C@]43C)[C@@H]12 | 7600 | 480 | > 400 | > 400 | 10 | 10 | – | –
13 | C=C(C)[C@@H]1CC[C@]2(C(=O)NCc3ccc(C(=O)NCCNC(C)=O)cc3)CC[C@]3(C)[C@H](CC[C@@H]4[C@@]5(C)CC[C@H](OC(=O)CC(C)(C)C(=O)O)C(C)(C)[C@@H]5CC[C@]43C)[C@@H]12 | 10000 | 30 | > 400 | > 400 | – | – | – | –
14 | C=C(C)[C@@H]1CC[C@]2(C(=O)N3Cc4ccccc4C3)CC[C@]3(C)[C@H](CC[C@@H]4[C@@]5(C)CC[C@H](OC(=O)CC(C)(C)C(=O)O)C(C)(C)[C@@H]5CC[C@]43C)[C@@H]12 | > 10000 | 70 | – | – | – | – | – | –
15 | C=C(C)[C@@H]1CC[C@]2(C(=O)NCCCc3ccc(OC)c(OC)c3)CC[C@]3(C)[C@H](CC[C@@H]4[C@@]5(C)CC[C@H](OC(=O)CC(C)(C)C(=O)O)C(C)(C)[C@@H]5CC[C@]43C)[C@@H]12 | 10000 | 20 | – | – | – | – | – | –
16 | C=C(C)[C@@H]1CC[C@]2(C(=O)NCc3ccc4ccccc4n3)CC[C@]3(C)[C@H](CC[C@@H]4[C@@]5(C)CC[C@H](OC(=O)CC(C)(C)C(=O)O)C(C)(C)[C@@H]5CC[C@]43C)[C@@H]12 | > 10000 | 26 | – | – | – | – | – | –
17 | C=C(C)[C@@H]1CC[C@]2(C(=O)N[C@H]3CCCc4ccccc43)CC[C@]3(C)[C@H](CC[C@@H]4[C@@]5(C)CC[C@H](OC(=O)CC(C)(C)C(=O)O)C(C)(C)[C@@H]5CC[C@]43C)[C@@H]12 | > 10000 | 180 | – | – | – | – | – | –
18 | C=C(C)[C@@H]1CC[C@]2(C(=O)NCCc3ccc(C(=O)O)cc3)CC[C@]3(C)[C@H](CC[C@@H]4[C@@]5(C)CC[C@H](OC(=O)CC(C)(C)C(=O)O)C(C)(C)[C@@H]5CC[C@]43C)[C@@H]12 | 1000 | 1000 | – | – | – | – | – | –
19 | C=C(C)[C@@H]1CC[C@]2(C(=O)NCc3cccnc3C(=O)O)CC[C@]3(C)[C@H](CC[C@@H]4[C@@]5(C)CC[C@H](OC(=O)CC(C)(C)C(=O)O)C(C)(C)[C@@H]5CC[C@]43C)[C@@H]12 | > 10000 | 24 | – | – | – | – | 30 | > 10000
20 | C=C(C)[C@@H]1CC[C@]2(C(=O)NCc3ccc4cccc(O)c4n3)CC[C@]3(C)[C@H](CC[C@@H]4[C@@]5(C)CC[C@H](OC(=O)CC(C)(C)C(=O)O)C(C)(C)[C@@H]5CC[C@]43C)[C@@H]12 | > 10000 | 3 | – | – | > 40 | > 40 | 4 | > 10000
21 | C=C(C)[C@@H]1CC[C@]2(C(=O)NCc3ncccc3C(=O)O)CC[C@]3(C)[C@H](CC[C@@H]4[C@@]5(C)CC[C@H](OC(=O)CC(C)(C)C(=O)O)C(C)(C)[C@@H]5CC[C@]43C)[C@@H]12 | > 10000 | 129 | – | – | – | – | – | –
22 | C=C(C)[C@@H]1CC[C@]2(C(=O)N[C@@H](Cc3ccc(OC)cc3)C(=O)O)CC[C@]3(C)[C@H](CC[C@@H]4[C@@]5(C)CC[C@H](OC(=O)CC(C)(C)C(=O)O)C(C)(C)[C@@H]5CC[C@]43C)[C@@H]12 | 5600 | 9 | – | – | – | – | – | –
23 | C=C(C)[C@@H]1CC[C@]2(C(=O)NCc3ccoc3)CC[C@]3(C)[C@H](CC[C@@H]4[C@@]5(C)CC[C@H](OC(=O)CC(C)(C)C(=O)O)C(C)(C)[C@@H]5CC[C@]43C)[C@@H]12 | > 10000 | 7 | – | – | – | – | 7 | > 10000
24 | C=C(C)[C@@H]1CC[C@]2(C(=O)NCCCc3ccc(OC)cc3)CC[C@]3(C)[C@H](CC[C@@H]4[C@@]5(C)CC[C@H](OC(=O)CC(C)(C)C(=O)O)C(C)(C)[C@@H]5CC[C@]43C)[C@@H]12 | 10000 | 80 | – | – | – | – | – | –
25 | C=C(C)[C@@H]1CC[C@]2(C(=O)NCc3ccc(C(=O)O)cn3)CC[C@]3(C)[C@H](CC[C@@H]4[C@@]5(C)CC[C@H](OC(=O)CC(C)(C)C(=O)O)C(C)(C)[C@@H]5CC[C@]43C)[C@@H]12 | > 10000 | 1700 | – | – | – | – | – | –
26 | C=C(C)[C@@H]1CC[C@]2(C(=O)NCc3ccccc3)CC[C@]3(C)[C@H](CC[C@@H]4[C@@]5(C)CC[C@H](OC(=O)CC(C)(C)C(=O)O)C(C)(C)[C@@H]5CC[C@]43C)[C@@H]12 | > 10000 | 23 | > 400 | > 400 | – | 10 | 11 | > 10000
27 | C=C(C)[C@@H]1CC[C@]2(C(=O)NCc3ccc(C(=O)O)cc3)CC[C@]3(C)[C@H](CC[C@@H]4[C@@]5(C)CC[C@H](OC(=O)CC(C)(C)C(=O)O)C(C)(C)[C@@H]5CC[C@]43C)[C@@H]12 | 8900 | 165 | > 400 | > 400 | 10 | 10 | – | –
28 | C=C(C)[C@@H]1CC[C@]2(C(=O)N[C@H](C(=O)O)c3ccc(OC)cc3)CC[C@]3(C)[C@H](CC[C@@H]4[C@@]5(C)CC[C@H](OC(=O)CC(C)(C)C(=O)O)C(C)(C)[C@@H]5CC[C@]43C)[C@@H]12 | 6800 | 40 | – | – | – | – | – | –
